Measured values reported in US7968097B2, “Identification of Hla-A2-presented T-cell epitopes derived from the oncofoetal antigen-immature laminin receptor protein and uses thereof” (Immatics Biotechnologies GmbH, priority 2005, dated 2011).

How the values were obtained:
peptide-pulsed T2 cells = assay: Lysis of peptide-pulsed T2 target cells by peptide-specific CTL (peptide titration); assay type: cell-based, human
[1] = test system: peptide-pulsed 51Cr-labelled T2 cells; assay: Cold target inhibition assay; assay type: cell-based, human
Excerpt: CTL derived from healthy HLA-A*0201^+ individuals were generated using a protocol described elsewhere (Zeis M, Siegel S, Schmitz M et al. Induction of cytotoxic T lymphocytes against hematologic neoplasms by survivin RNA-transfected dendritic cells. J Immunol. 2003; 170, 5391-5397.). For the induction of autologous OFA/ILR, peptide-specific CTL obtained from patients with AML and CLL, CD8^+ T cells were separated from PBMC using immunomagnetic beads (MACS®, Miltenyi, Bergisch-Gladbach, Germany), cultured with autologous OFA/iLR peptide-pulsed fully matured DC and restimulated with autologous peptide-pulsed PBMC in the presence of IL-2 (1 ng/ml, CellConcepts, Weisskirch, Germany). After at least four weekly restimulations, CTL reactivity was determined in a conventional 4 h ^51Chromium release assay. Cold target inhibition assays and antibody blocking experiments were performed as previously described (Zeis M, Siegel S, Schmitz M et al. Induction of cytotoxic T lymphocytes against hematologic neoplasms by survivin RNA-transfected dendritic cells. J Immunol. 2003; 170, 5391-5397.).
A cold target inhibition assay was performed. To examine whether ILR1-specific T cells lyse ILR1 peptide-pulsed T2 cells specifically and in the context of HLA-A*02, cold target inhibition assays were performed as follows: ^51Cr-labelled T2 cells were loaded with peptide in a concentration of 10 microgram peptide/10^6 T2 cells/ml. A total of 2×10^5 unlabelled, T2 cells, which had equally been loaded with the same or a control peptide, were then added in a volume of 50 microliter AIMV to 10^4 peptide-pulsed, ^51Cr-labelled T2 cells. Effector T cells specific for ILR1 were added and a ^51Cr-release assay was performed as described above.
A cold target inhibition assay was performed as described under “T2+ILR1” above.

Sequence	recognition/lysis of T2 cells pulsed with the peptide (peptide-pulsed T2 cells)	competition of cold targets loaded with the peptide for lysis ([1]; hot target ILR1-peptide-pulsed T2, effectors ILR1-specific CTL, 10 microgram peptide/10^6 T2 cells/ml)	competition of cold targets loaded with the peptide for lysis ([1]; hot target ILR2-peptide-pulsed T2, effectors ILR2-specific CTL)
ILKEPVHGV [HIV peptide, reference compound]	not recognized		
LYLKNYRIA (listed as Homo sapiens) [Survivin, reference compound]		neither peptides irrelevant for ILR1-specific CTL (Survivin and ILR2), nor unloaded T2 cells, which display empty HLA-A*02 molecules on their cell surfaces, compete for lysis	neither peptides irrelevant for ILR2-specific CTL (Survivin and ILR1), nor unloaded T2 cells, which display empty HLA-A*02 molecules on their cell surfaces, compete for lysis
